Assay results taken from ChEMBL document CHEMBL1201862, “PubChem BioAssay data set” (2004).
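Growth conditions: 96-well plates. Treatment: test compound, 48 hours, 5 concentrations. Analysis: linear interpolation between bracketing concentrations; unreached endpoints set to highest concentration. Here, GI50 denotes the concentration required for 50% inhibition of growth.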 The source made the active and inactive calls. Rule as the data show it: active = GI50 up to about 1.1 µM and inactive = higher.

Assays:
Test in all cases: NCI anticancer screen, dose series, 48 h
786-0 = system: 786-0
A498 = system: A498
A549 = system: A549
ACHN = system: ACHN
BT-549 = system: BT-549
CAKI-1 = system: CAKI-1
CCRF-CEM = system: CCRF-CEM
COLO 205 = system: COLO 205
DU-145 = system: DU-145
EKVX = system: EKVX
HCC 2998 = system: HCC 2998
HCT-116 = system: HCT-116
HCT-15 = system: HCT-15
HL-60 = system: HL-60
HOP-62 = system: HOP-62
HOP-92 = system: HOP-92
HT-29 = system: HT-29
Hs-578T = system: Hs-578T
IGROV-1 = system: IGROV-1
K562 = system: K562
KM12 = system: KM12
LOX IMVI = system: LOX IMVI
MCF7 = system: MCF7
MDA-MB-231 = system: MDA-MB-231
MDA-MB-435 = system: MDA-MB-435
MDA-N = system: MDA-N
MOLT-4 = system: MOLT-4
Malme-3M = system: Malme-3M
NCI-H226 = system: NCI-H226
NCI-H23 = system: NCI-H23
NCI-H460 = system: NCI-H460
NCI-H522 = system: NCI-H522
NCI/ADR-RES = system: NCI/ADR-RES
OVCAR-3 = system: OVCAR-3
OVCAR-4 = system: OVCAR-4
OVCAR-5 = system: OVCAR-5
OVCAR-8 = system: OVCAR-8
PC-3 = system: PC-3
RPMI-8226 = system: RPMI-8226
RXF 393 = system: RXF 393
SF-268 = system: SF-268
SF-295 = system: SF-295
SF-539 = system: SF-539
SK-MEL-28 = system: SK-MEL-28
SK-MEL-2 = system: SK-MEL-2
SK-MEL-5 = system: SK-MEL-5
SK-OV-3 = system: SK-OV-3
SN12C = system: SN12C
SNB-75 = system: SNB-75
SR = system: SR
SW-620 = system: SW-620
T47D = system: T47D
TK-10 = system: TK-10
U-251 = system: U-251
UACC-257 = system: UACC-257
UACC-62 = system: UACC-62
UO-31 = system: UO-31
M14 = system: M14
SNB-19 = system: SNB-19

With CCOP(=O)(CCCC(O)CNc1cc(Cl)nc(N)n1)OCC (stereo unspecified) the GI50 (786-0) was > 100 µM (inactive), the GI50 (A498) was > 100 µM (inactive) and the GI50 (A549) was > 100 µM (inactive). The GI50 (ACHN) was > 100 µM (inactive), the GI50 (BT-549) was > 100 µM (inactive) and the GI50 (CAKI-1) was > 100 µM (inactive). For the same compound, the GI50 (CCRF-CEM) was > 100 µM (inactive), the GI50 (COLO 205) was > 100 µM (inactive) and the GI50 (DU-145) was > 100 µM (inactive). The GI50 (EKVX) was > 100 µM (inactive), the GI50 (HCC 2998) was > 100 µM (inactive) and the GI50 (HCT-116) was > 100 µM (inactive). For the same compound, the GI50 (HCT-15) was greater than 100 µM, the GI50 (HL-60) was > 100 µM (inactive) and the GI50 (HOP-62) was > 100 µM (inactive). The GI50 (HOP-92) was > 100 µM (inactive), the GI50 (HT-29) was > 100 µM (inactive) and the GI50 (Hs-578T) was > 100 µM (inactive). For the same compound, the GI50 (IGROV-1) was > 100 µM (inactive), the GI50 (K562) was > 100 µM (inactive) and the GI50 (KM12) was > 100 µM (inactive). The GI50 (LOX IMVI) was > 100 µM (inactive), the GI50 (MCF7) was > 100 µM (inactive) and the GI50 (MDA-MB-231) was > 100 µM (inactive). The GI50 (MDA-MB-435) was > 100 µM (inactive), the GI50 (MDA-N) was > 100 µM (inactive) and the GI50 (MOLT-4) was > 100 µM (inactive). For the same compound, the GI50 (Malme-3M) was > 100 µM (inactive), the GI50 (NCI-H226) was > 100 µM (inactive) and the GI50 (NCI-H23) was > 100 µM (inactive). The GI50 (NCI-H460) was > 100 µM (inactive), the GI50 (NCI-H522) was > 100 µM (inactive) and the GI50 (NCI/ADR-RES) was > 100 µM (inactive). For the same compound, the GI50 (OVCAR-3) was > 100 µM (inactive), the GI50 (OVCAR-4) was > 100 µM (inactive) and the GI50 (OVCAR-5) was > 100 µM (inactive). For the same compound, the GI50 (OVCAR-8) was > 100 µM (inactive), the GI50 (PC-3) was > 100 µM (inactive) and the GI50 (RPMI-8226) was > 100 µM (inactive). For the same compound, the GI50 (RXF 393) was > 100 µM (inactive), the GI50 (SF-268) was > 100 µM (inactive) and the GI50 (SF-295) was > 100 µM (inactive). The GI50 (SF-539) was > 100 µM (inactive), the GI50 (SK-MEL-28) was > 100 µM (inactive) and the GI50 (SK-MEL-2) was > 100 µM (inactive). For the same compound, the GI50 (SK-MEL-5) was > 100 µM (inactive), the GI50 (SK-OV-3) was > 100 µM (inactive) and the GI50 (SN12C) was > 100 µM (inactive). The GI50 (SNB-75) was > 100 µM (inactive), the GI50 (SR) was > 100 µM (inactive) and the GI50 (SW-620) was > 100 µM (inactive). The GI50 (T47D) was > 100 µM (inactive), the GI50 (TK-10) was > 100 µM (inactive) and the GI50 (U-251) was > 100 µM (inactive). For the same compound, the GI50 (UACC-257) was > 100 µM (inactive), the GI50 (UACC-62) was > 100 µM (inactive) and the GI50 (UO-31) was > 100 µM (inactive).
For CN(C)c1ccc(C(c2ccc(N(C)C)cc2)c2ccc([N+](=O)[O-])cc2)cc1, the GI50 (786-0) was > 100 µM (inactive), the GI50 (A498) was > 100 µM (inactive) and the GI50 (A549) was > 100 µM (inactive). For the same compound, the GI50 (ACHN) was > 100 µM (inactive), the GI50 (BT-549) was > 100 µM (inactive) and the GI50 (CAKI-1) was > 100 µM (inactive). For the same compound, the GI50 (CCRF-CEM) was > 100 µM (inactive), the GI50 (COLO 205) was > 100 µM (inactive) and the GI50 (DU-145) was > 100 µM (inactive). For the same compound, the GI50 (EKVX) was > 100 µM (inactive), the GI50 (HCC 2998) was > 100 µM (inactive) and the GI50 (HCT-116) was > 100 µM (inactive). For the same compound, the GI50 (HCT-15) was greater than 100 µM, the GI50 (HL-60) was 23.9 µM (inactive) and the GI50 (HOP-62) was > 100 µM (inactive). For the same compound, the GI50 (HOP-92) was > 100 µM (inactive), the GI50 (HT-29) was > 100 µM (inactive) and the GI50 (Hs-578T) was > 100 µM (inactive). For the same compound, the GI50 (IGROV-1) was > 100 µM (inactive), the GI50 (K562) was > 100 µM (inactive) and the GI50 (KM12) was > 100 µM (inactive). The GI50 (LOX IMVI) was > 100 µM (inactive), the GI50 (M14) was > 100 µM (inactive) and the GI50 (MCF7) was > 100 µM (inactive). For the same compound, the GI50 (MDA-MB-231) was > 100 µM (inactive), the GI50 (MDA-MB-435) was > 100 µM (inactive) and the GI50 (MDA-N) was > 100 µM (inactive). The GI50 (MOLT-4) was > 100 µM (inactive), the GI50 (Malme-3M) was > 100 µM (inactive) and the GI50 (NCI-H226) was > 100 µM (inactive). The GI50 (NCI-H23) was > 100 µM (inactive), the GI50 (NCI-H460) was > 100 µM (inactive) and the GI50 (NCI-H522) was > 100 µM (inactive). The GI50 (NCI/ADR-RES) was > 100 µM (inactive), the GI50 (OVCAR-3) was > 100 µM (inactive) and the GI50 (OVCAR-4) was > 100 µM (inactive). The GI50 (OVCAR-5) was > 100 µM (inactive), the GI50 (OVCAR-8) was > 100 µM (inactive) and the GI50 (PC-3) was > 100 µM (inactive). The GI50 (RPMI-8226) was 15.1 µM (inactive), the GI50 (RXF 393) was > 100 µM (inactive) and the GI50 (SF-268) was > 100 µM (inactive). The GI50 (SF-295) was > 100 µM (inactive), the GI50 (SF-539) was > 100 µM (inactive) and the GI50 (SK-MEL-28) was > 100 µM (inactive). The GI50 (SK-MEL-2) was > 100 µM (inactive), the GI50 (SK-MEL-5) was > 100 µM (inactive) and the GI50 (SK-OV-3) was > 100 µM (inactive). The GI50 (SN12C) was > 100 µM (inactive), the GI50 (SNB-19) was > 100 µM (inactive) and the GI50 (SR) was 90.6 µM (inactive). The GI50 (SW-620) was > 100 µM (inactive), the GI50 (T47D) was > 100 µM (inactive) and the GI50 (TK-10) was > 100 µM (inactive). For the same compound, the GI50 (U-251) was > 100 µM (inactive), the GI50 (UACC-257) was > 100 µM (inactive) and the GI50 (UACC-62) was > 100 µM (inactive). For the same compound, the GI50 (UO-31) was > 100 µM (inactive).
In the case of COC(=O)[C@]1(C)CCCC2(C)C3=C(CCC21)CC1(CC3)SCCS1 (stereo partly specified), the GI50 (786-0) was > 10 µM (inactive), the GI50 (A498) was > 10 µM (inactive) and the GI50 (A549) was > 10 µM (inactive). The GI50 (ACHN) was > 10 µM (inactive), the GI50 (BT-549) was > 10 µM (inactive) and the GI50 (CAKI-1) was > 10 µM (inactive). For the same compound, the GI50 (CCRF-CEM) was > 10 µM (inactive), the GI50 (COLO 205) was > 10 µM (inactive) and the GI50 (DU-145) was > 10 µM (inactive). For the same compound, the GI50 (EKVX) was > 10 µM (inactive), the GI50 (HCC 2998) was > 10 µM (inactive) and the GI50 (HCT-116) was > 10 µM (inactive). The GI50 (HCT-15) was greater than 10 µM, the GI50 (HL-60) was > 10 µM (inactive) and the GI50 (HOP-62) was > 10 µM (inactive). For the same compound, the GI50 (HOP-92) was > 10 µM (inactive), the GI50 (HT-29) was > 10 µM (inactive) and the GI50 (Hs-578T) was > 10 µM (inactive). For the same compound, the GI50 (IGROV-1) was > 10 µM (inactive), the GI50 (K562) was > 10 µM (inactive) and the GI50 (KM12) was > 10 µM (inactive). For the same compound, the GI50 (M14) was > 10 µM (inactive), the GI50 (MCF7) was > 10 µM (inactive) and the GI50 (MDA-MB-231) was > 10 µM (inactive). For the same compound, the GI50 (MDA-MB-435) was > 10 µM (inactive), the GI50 (MDA-N) was > 10 µM (inactive) and the GI50 (MOLT-4) was > 10 µM (inactive). For the same compound, the GI50 (Malme-3M) was > 10 µM (inactive), the GI50 (NCI-H23) was > 10 µM (inactive) and the GI50 (NCI-H522) was > 10 µM (inactive). For the same compound, the GI50 (NCI/ADR-RES) was > 10 µM (inactive), the GI50 (OVCAR-3) was > 10 µM (inactive) and the GI50 (OVCAR-4) was > 10 µM (inactive). The GI50 (OVCAR-8) was > 10 µM (inactive), the GI50 (PC-3) was > 10 µM (inactive) and the GI50 (RPMI-8226) was > 10 µM (inactive). The GI50 (SF-268) was > 10 µM (inactive), the GI50 (SF-539) was > 10 µM (inactive) and the GI50 (SK-MEL-28) was > 10 µM (inactive). For the same compound, the GI50 (SK-MEL-5) was > 10 µM (inactive), the GI50 (SK-OV-3) was > 10 µM (inactive) and the GI50 (SN12C) was > 10 µM (inactive). For the same compound, the GI50 (SNB-19) was > 10 µM (inactive), the GI50 (SNB-75) was > 10 µM (inactive) and the GI50 (SR) was > 10 µM (inactive). The GI50 (SW-620) was > 10 µM (inactive), the GI50 (T47D) was > 10 µM (inactive) and the GI50 (TK-10) was > 10 µM (inactive). The GI50 (U-251) was > 10 µM (inactive), the GI50 (UACC-257) was > 10 µM (inactive) and the GI50 (UACC-62) was > 10 µM (inactive).
